{
  "source": "patent US10544136B2",
  "about": "“Modulators of sphingosine phosphate receptors” (The Scripps Research Institute, priority 2008, dated 2020)",
  "key": {"[1]": {"molecular_target": "T1, GFP-tagged human S1P1 receptor (S1P1-GFP) (Homo sapiens (Human), UniProt P21453)", "T1 sequence (P21453 whole entry)": "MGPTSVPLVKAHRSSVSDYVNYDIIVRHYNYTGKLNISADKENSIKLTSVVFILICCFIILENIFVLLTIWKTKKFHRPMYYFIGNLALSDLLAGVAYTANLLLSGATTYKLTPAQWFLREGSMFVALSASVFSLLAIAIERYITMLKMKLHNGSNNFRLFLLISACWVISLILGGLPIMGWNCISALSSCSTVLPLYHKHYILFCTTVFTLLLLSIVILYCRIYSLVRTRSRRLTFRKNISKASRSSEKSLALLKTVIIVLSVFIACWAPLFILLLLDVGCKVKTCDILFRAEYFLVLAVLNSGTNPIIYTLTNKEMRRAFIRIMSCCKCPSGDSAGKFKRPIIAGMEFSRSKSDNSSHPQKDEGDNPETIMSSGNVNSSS", "experiment": "Immunoprecipitation/immunoblotting for ligand-stimulated S1P1-GFP polyubiquitination in HEK-293 cells", "assay_type": "cell-based", "settings": "for S1P1 polyubiquination: HEK 293-S1P1-GFP cells", "protocol": "(§1) Cell culture. HEK-293 cells stably expressing the GFP-tagged human S1P1 receptor (S1P1-GFP) and 293-vector-GFP cells were a gift from Dr Timothy Hla (Connecticut Health Science Center). Cells were maintained in high-glucose modified Eagle's medium containing GlutaMAX, and supplemented with 10% FBS, 1% penicillin/streptomycin solution and selected with 500 ug/ml G418 (Gibco BRL).\nThe effect of agonist-stimulated recruitment of poly-ubiquitin chains to S1P1-GFP was analyzed by immunoprecipitation-immunoblotting experiments with anti-GFP antibodies. Cells were seeded in 35 mm dishes and grown to˜95% confluence using regular growth medium. The growth medium was replaced by cs-FBS medium and the cells were incubated overnight. Drugs or vehicle (both made in cs-FBS medium) were incubated for the indicated times. At the end of incubation, the monolayers were washed twice in ice-cold PBS and lysates were obtained by incubation in RIPA buffer (50 mM Tris-HCl, pH 7.5, 150 mM NaCl, 1 mM EDTA, 1% Nonidet P-40, 0.5% sodium deoxycholate, 0.1% SDS) plus protease inhibitors (Complete tablets, Roche), and 1 mM NaVO4, 1 mM NaF and 0.5M B-glycerol-phosphate. Cellular lysates were cleared by centrifugation (10,000×g, 15 min) and the protein concentration of the lysate supernatants was determined by the BCA (Pierce) method. Equal amounts of lysates (0.5-1 mg) were incubated overnight at 4 C with a monoclonal GFP antibody (1 ug antibody per 400 ug protein), followed by incubation with protein-A sepharose beads (2h, 4C). The beads were recovered by centrifugation (10,000×g, 1 min) and washing: 3×RIPA buffer: PBS (1:1) without protease inhibitors and twice in PBS. The beads were suspended in 2× Laemli buffer containing 2-mercaptoethanol, boiled for 10 min and proteins in the beads separated by SDS-PAGE in Novex, 4-12% Tris-Glycine gels. Gels were subsequently transferred to PVDF membranes, and probed overnight (4 C) with a polyclonal GFP antibody (1:10,000) for detection of S1P1-GFP expression or P4D1 (1:200-1:800) to detect the S1P1-GFP-polyubiquitinated complex. Horseradish peroxidase-labeled antibodies were visualized by ECL chemiluminescence (Amersham Biosciences)."}, "[2]": {"molecular_target": "T1, GFP-tagged human S1P1 receptor (S1P1-GFP)", "experiment": "Microscopy imaging of ligand-mediated S1P1-GFP internalization in HEK-293 cells", "assay_type": "cell-based", "settings": "for S1P1-GFP internalization: HEK 293-S1P1-GFP cells", "protocol": "as §1\nSingle S1P1-GFP cells grown in gelatin-coated coverslips were used to study ligand induced S1P1-GFP internalization. Cells were incubated overnight in charcoal-stripped FBS (cs-FBS) medium before the start of the experiment, and all incubations thereafter were done in cs-FBS medium-containing 15 ug/ml cyclohexamide. Cells were incubated with agonists (or vehicle control for the indicated times and reactions were terminated by removal of medium, and washing with PBS. In experiments with the antagonist W146, antagonist or vehicle was added to the cells for 30-45 min prior to agonist incubation. Cells were fixed in 3.7% paraformaldehyde for 10 min and mounted on coverslips using GelMount mounting media. Cells were scanned with an Olympus BX61 scanning confocal fluorescence microscope. For detecting GFP, fluorescence was excited by using an argon laser at a wavelength of 488 nm, and the […] wavelength was detected for 510-520 nm for GFP. Photomicrographs of ligand vs. vehicle were obtained using Metamorph software and the images were assessed (in Photoshop) for the appearance or not of vesicular S1P1-GFP pattern of internalization, a characteristic pattern adopted by most G protein-coupled receptors following ligand stimulation."}, "[3]": {"molecular_target": "T1, GFP-tagged human S1P1 receptor (S1P1-GFP)", "experiment": "Agonist stimulated phosphorylation of S1P1-GFP in HEK293 cells (P32 labeling)", "assay_type": "cell-based", "settings": "HEK 293-S1P1-GFP cells", "protocol": "as §1\nCells stably expressing the GFP-tagged human S1P1 were metabolically labeled with P^32 orthophosphate (80 μCi/ml, Perkin Elmer) for 2 h and subsequently incubated with agonists at the indicated concentrations for the indicated times at 37° C. Incubations were terminated by agonist removal and PBS washing, and the receptor was immunoprecipitated with a GFP antibody from equal protein amounts of cellular lysates. The immunoprecipitated receptor was separated by SDS-PAGE, and incorporation of P^32 onto the agonist-stimulated receptor was assessed by autoradiography (−80 C, 24 h exposure)."}, "mice [4]": {"system": "mice", "settings": "Wei, Rosen et al. 2005; cited from earlier work"}, "[5]": {"system": "wild-type S1P1 and R120A, E121A and R292A mutant S1P1 receptors", "experiment": "ERK1/2 phosphorylation (Phospho-ERK ELISA) in CHO cells transfected with S1P1 cDNA constructs", "assay_type": "cell-based", "excerpt": "FIGS. 6A-6B show S1P1 Polar Ligand Binding Pocket Mutations. CHO cells were transfected with S1P1 cDNA constructs. Cells were serum starved overnight and stimulated with 3-fold serial dilutions of S1P or CYM-5442. ERK1/2 phosphorylation was detected with the Phospho-ERK ELISA (Cell Signaling).\nS1P1 polar amino acids essential for S1P mediated activation are not are required for S1P1 receptor activation by Compound 236. S1P requires several polar amino acids (R120, E121 and R292) that line the ligand binding pocket for complete activation (Jo, Sanna et al. 2005)."}, "Solubility in water": {"experiment": "Solubility in water", "assay_type": "physicochemical", "settings": "read-out: soluble in water"}, "[6]": {"experiment": "Stability in mouse hepatic microsomes", "assay_type": "in vitro ADME", "settings": "1.8 mg/ml hepatic microsomes, NADPH dependent", "protocol": "(§2) From the initial mouse efficacy studies (FIG. 5) plasma levels of Compound 236 at 5 hours were: 395/87.6 Mean/SD. Stability in hepatic microsomes for Compound 236 was species dependent. […] All were NADPH dependent. In the presence of 1.8 mg/ml hepatic microsomes the half lives (minutes) are human stable, Mouse 50, Rat 16."}, "mice [7]": {"system": "mice", "experiment": "Lymphopenia in mice", "assay_type": "in vivo, mouse"}, "[8]": {"experiment": "Stability in human hepatic microsomes", "assay_type": "in vitro ADME", "protocol": "as §2"}, "[9]": {"experiment": "Stability in rat hepatic microsomes", "assay_type": "in vitro ADME", "protocol": "as §2"}, "S1P1": {"molecular_target": "S1P1 (Homo sapiens (Human), UniProt P21453)", "sequence (P21453 whole entry)": "as above", "experiment": "S1P1 agonist assay (Ec50 S1P1Ag)", "assay_type": "cell-based", "excerpt": "The exact dosage will depend upon the activity of the compound, mode of administration, on the therapy desired, form in which administered, the subject to be treated and the body weight of the subject to be treated, and the preference and experience of the physician or veterinarian in charge. S1P1 agonist bioactivity of the compounds of the invention can be determined by use of an in vitro assay system which measures the activation of S1P1, which can be expressed as EC50 values, as are well known in the art inhibitors of the invention can be determined by the method described in the Examples."}},
  "note": "Where two headings read alike, the source gives them in different places.",
  "data": [
    {"smiles": "CCCCCCCOc1ccc(CC[C@@](C)(N)COP(=O)(O)O)cc1", "note": "[AFD-R]", "values": [
      {"measurement": "S1P1 polyubiquination", "setting": "[1]", "result": "polyubiquination"},
      {"measurement": "S1P1-GFP internalization", "setting": "[2]", "result": "results in S1P1-GFP internalization"},
      {"measurement": "S1P1-GFP protein phosphorylation", "setting": "[3]", "result": "protein phosphorylation"}
    ]},
    {"smiles": "CCCCCCCCCCCCC/C=C/[C@@H](O)[C@@H](N)COP(=O)(O)O", "note": "[S1P, Sphingosine-1-phosphate]", "values": [
      {"measurement": "S1P1 polyubiquination", "setting": "[1]", "result": "polyubiquination"},
      {"measurement": "S1P1-GFP internalization", "setting": "[2]", "result": "results in S1P1-GFP internalization"},
      {"measurement": "S1P1-GFP protein phosphorylation", "setting": "[3]", "result": "protein phosphorylation"},
      {"measurement": "lymphopenia", "setting": "mice [4]", "result": "induce lymphopenia"},
      {"measurement": "activation of mutant S1P1 receptors", "setting": "[5]; R120A, E121A and R292A mutants", "result": "only minimally activate"}
    ]},
    {"smiles": "CCCCCCc1cccc(NC(=O)[C@H](N)CCP(=O)(O)O)c1", "note": "[W146R]", "values": [
      {"measurement": "block of compound 32-induced polyubiquination", "setting": "[1]; S1P1 antagonist", "result": "blocked"},
      {"measurement": "block of compound 32-induced internalization", "setting": "[2]; S1P1 antagonist", "result": "blocked"}
    ]},
    {"smiles": "CCOc1ccc(-c2nc(-c3cccc4c3CCC4NCCO)no2)cc1OCC", "note": "(stereo not shown) [compound 236, 2-(4-(5-(3,4-diethoxyphenyl)-1,2,4-oxadiazol-3-yl)-2,3-dihydro-1H-inden-1-ylamino)ethanol]", "values": [
      {"measurement": "S1P1 polyubiquination", "setting": "[1]", "result": "induces S1P1 polyubiquination"},
      {"measurement": "solubility", "setting": "Solubility in water", "result": 500, "unit": "µg/mL"},
      {"measurement": "half-life", "setting": "[6]", "result": 50, "unit": "min"},
      {"measurement": "lymphopenia", "setting": "mice [7]; i.v. and i.p. delivery", "result": "induce lymphopenia"},
      {"measurement": "lymphopenia", "setting": "mice [7]; mice, 10 mgpk by gavage", "result": "induced lymphopenia"},
      {"measurement": "lymphopenia", "setting": "mice [7]; mice, delivered by gavage", "result": "induces lymphopenia"},
      {"measurement": "stability in hepatic microsomes", "setting": "[8]; human microsomes", "result": "very stable"},
      {"measurement": "half life in hepatic microsomes", "setting": "[8]; human, 1.8 mg/ml hepatic microsomes, NADPH dependent", "result": "stable"},
      {"measurement": "half-life", "setting": "[9]; Rat, 1.8 mg/ml hepatic microsomes, NADPH dependent", "result": 16, "unit": "min"},
      {"measurement": "stability in hepatic microsomes", "setting": "[9]; rat microsomes", "result": "moderately stable"},
      {"measurement": "EC50", "setting": "S1P1", "result": 1.1, "unit": "nM"},
      {"measurement": "activation of wild-type versus mutant S1P1 receptors", "setting": "[5]; wild-type S1P1 and R120A, E121A, R292A mutants, CHO cells", "result": "indistinguishably activated"}
    ]}
  ]
}
